How the values were obtained:
[1] = Experimental log P; type: physicochemical
[2] = Tetrazine stability in PBS buffer in ambient light at 25° C.; type: physicochemical; conditions: PBS buffer pH 7.4, ambient light, day 0-5
Experimental: Solutions (3 mL) of tetrazine 5b, 5l and 6c (400 μM) were prepared in PBS buffer (pH 7.4) in vials and stored in ambient light at 25° C. Tetrazine concentrations were determined by recording the absorbance at 518 nm (6c) and 520 nm (5b and 5l) in cuvettes in day 0, 1, 3 and 5. A solution of 6a (50 μM) was prepared in PBS buffer (pH 7.4) in vials and stored in ambient light at room temperature. Tetrazine concentration was determined by recording the absorbance at 520 nm in cuvettes at day 0, 1, 3 and 5.

[3] = Tetrazine stability in Opti-MEM media in ambient light at 25° C.; type: physicochemical; conditions: 400 μM
Experimental: Solutions (10 mL) of tetrazine 5b and 6c (400 μM) were prepared in Opti-MEM media in vials and stored in ambient light at 25° C. 2 mL of solution was extracted by 2 mL of Et2O in different time point. Tetrazine concentrations were determined by recording the absorbance of Et2O at 545 nm.

[4] = Stopped-flow kinetic analysis of tetrazines with eq-5-hydroxy-trans-cyclooctene in PBS buffer at 25° C.; conditions: for k2, second order rate constant / kobs: PBS pH 7.4, 25° C.; for k2, second order rate constant: linear regression of kobs; for kobs: 0.025 mM tetrazine; for krel: relative to 5b, PBS, 25° C.
Experimental: Solutions (5 mL) of tetrazines 5b, 6c, 5l, 6a and 4f (0.050 mM) were prepared in PBS buffer (pH 7.4). Solutions (10 mL) of eq-5-hydroxy-trans-cyclooctene (0.50, 0.60, 0.70, 0.80 mM) were prepared in PBS buffer (pH 7.4). The reactions between tetrazines and trans-cyclooctene were measured under pseudo-first order conditions using SX 18MV-R stopped-flow spectrophotometer (Applied Photophysics Ltd.). Each solution of tetrazine and trans-cyclooctene were injected in equal volumes via 3 mL syringes into the stopped-flow instrument at 25° C., resulting in final concentration of 0.025 mM of tetrazines and 0.25, 0.30, 0.35, 0.40 mM trans-cyclooctene. The reaction was monitored by the decay of absorbance associated with the tetrazines (5b at 263 nm, 6c at 268 nm, 5l at 274 nm, 6a at 296 nm, 4f at 266 nm). Reaction were repeated in triplicate. With Prism software, an observed rate constant, kobs, was obtained by nonlinear regression. Second order rate constants, k2, were calculated by linear regression between kobs and final concentration of trans-cyclooctene.

[5] = biological target: T1, human MAGL enzyme (Homo sapiens, UniProt Q99685); experiment: MAGL in vitro activity assay (7-HCA substrate, fluorescence); type: biochemical; conditions: human MAGL pre-treated 30 min at room temperature, 7-HCA substrate 1 h; read-out: IC50, inhibition of MAGL activity in vitro
T1 sequence (Q99685 1-303): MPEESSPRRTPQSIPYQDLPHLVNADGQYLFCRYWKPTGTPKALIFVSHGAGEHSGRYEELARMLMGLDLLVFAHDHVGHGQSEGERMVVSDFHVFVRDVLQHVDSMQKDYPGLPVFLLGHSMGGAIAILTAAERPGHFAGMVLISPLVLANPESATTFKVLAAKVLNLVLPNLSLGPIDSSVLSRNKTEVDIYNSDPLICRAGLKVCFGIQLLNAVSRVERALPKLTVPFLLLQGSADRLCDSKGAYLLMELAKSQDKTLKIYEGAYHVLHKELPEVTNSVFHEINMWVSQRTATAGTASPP
Experimental: MAGL in vitro activity assay. The MAGL in vitro activity assay was performed based on a reported protocol. Briefly, human MAGL enzyme was pre-treated with compounds at room temperature for 30 min, and subsequently incubated with 7-hydroxycoumarinyl arachidonate (7-HCA) as a substrate at room temperature for 1 h. The fluorescence signals were measured on an Envision plate reader (excitation 355 nm, emission 460 nm).

[6] = test system: MAGL; experiment: Cellular labeling kinetics of TCO-TAMRA with MAGL probes in live human brain vascular pericytes; type: cell-based; conditions: for extent of MAGL labeling at the probe concentration used: 100c 1 μM or 12 32 nM, 37° C., 1 h
Experimental: To measure the cellular labeling kinetics of TCO-TAMRA with 100c and 12, live cells were treated with 100c (1 μM) or 12 (32 nM) at 37° C. for 1 h. […] Subsequently, the cells were washed with fresh growth media, which were placed with fresh media containing 50 nM, 200 nM, or 2 μM of TCO-TAMRA, and the cells were incubated at 37° C. for 2, 5, 10, 15, 20, 30, and 60 min. To quench the reaction, the media were replaced with PBS containing 100 μM tetrazine amine, and the cells were washed with cold PBS and harvested with a scrapper.
The suspensions were centrifuged at 10,000×g for 1 min at 37° C., and the cell pellets were lysed in PBS containing 0.25% sodium dodecyl sulfate (SDS) with sonication. The protein concentration was measured with a bicinchoninic acid (BCA) assay kit (Thermo Scientific) and normalized.
In-gel fluorescence and data analysis. Same procedure as described in Example 17 was used.

[7] = Stopped-flow kinetic analysis of MAGL tetrazines with eq-5-hydroxy-trans-cyclooctene in MeOH at 25° C.; conditions: for kobs: 0.04 mM tetrazine, 0.40 mM trans-cyclooctene, MeOH; for kobs / krel: 25° C.; for krel: relative to 12, MeOH
Experimental: Solutions (3 mL) of tetrazines 100a, 100b, 100c and 12 (0.080 mM) was prepared in MeOH. Solutions (3 mL) of eq-5-hydroxy-trans-cyclooctene (0.80 mM) were prepared in MeOH. The reactions between tetrazines and trans-cyclooctene were measured under pseudo-first order conditions using SX 18MV-R stopped-flow spectrophotometer (Applied Photophysics Ltd.). Each solution of tetrazine and trans-cyclooctene were injected in equal volumes via 3 mL syringes into the stopped-flow instrument at 25° C., resulting in final concentration of 0.04 mM of tetrazines and 0.40 mM trans-cyclooctene. The reaction was monitored by the decay of absorbance associated with the tetrazines (10a and 10b at 300 nm, 10c at 280 nm). Reaction were repeated in triplicate. With Prism software, an observed rate constant, kobs, was obtained by nonlinear regression.

[8] = biological target: T2, endogenous MAGL (Homo sapiens, UniProt Q99685); experiment: Labeling of endogenous MAGL in live cells, gel-based ABPP with TCO-TAMRA; type: cell-based; conditions: human brain vascular pericytes, probe 1 h, 2 μM TCO-TAMRA 30 min
T2 sequence (Q99685 1-303): T1 sequence (Q99685 1-303)
Experimental: Cell culture and probe treatment. Human brain vascular pericytes were cultured in Dulbecco's Modified Eagle Medium/Nutrient Mixture F-12 (DMEM/F-12) GlutaMAX media supplemented with 5% heat-inactivated fetal bovine serum (HI FBS), 1× pericyte growth supplement (PGS), and 1× penicillin-streptomycin at 37° C. with 5% CO2 in a humidified environment. Probe treatment was performed in duplicates. Cells were plated in 6-well plates and cultured overnight in growth media. Live cells were then treated with 300 nM KML29 as a competitor compound (or DMSO as a control) at 37° C. for 1 h. Cells were subsequently treated with probe 9 (0.3 nM-3.2 μM) at 37° C. for 1 h (cells pre-treated with KML29 were treated with 32 nM of probe 9), after which the cells were washed with fresh growth media. The media were then placed with fresh media containing 2 μM of TCO-TAMRA, and the cells were incubated at 37° C. for 30 min. To quench the reaction, the media were replaced with PBS containing 100 μM tetrazine amine, and the cells were washed with cold PBS and harvested with a scrapper. The suspensions were centrifuged at 10,000×g for 1 min at 37° C., and the cell pellets were lysed in PBS containing 0.25% sodium dodecyl sulfate (SDS) with sonication. The protein concentration was measured with a bicinchoninic acid (BCA) assay kit (Thermo Scientific) and normalized. In-gel fluorescence and data analysis. The proteomes were analyzed with 1.0 mm thick 4-12% bis-tris 15-well protein gels in 2-(N-morpholino)ethanesulfonic acid (MES) buffer. The gels were scanned with a Typhoon FLA 9500 Biomolecular Imager (GE Healthcare) with the TAMRA channel with 532 nm excitation and a 575 nm long pass emission filter. To measure the total protein loading, the gels were treated with ClearPage Instant Blue (CBS Scientific) overnight, and after brief destaining with water, scanned with an Odyssey Imager (Li-COR) at the 700 nm channel. The in-gel fluorescence images were processed with ImageJ software (v1.47, NIH), and the intensities were quantified with Image Studio (v5.2, Li-COR) with background subtraction. The coomassie images were processed and quantified with the Image Studio software with background subtraction. For analysis of the cellular potency, the in-gel fluorescence intensities of the two MAGL bands were averaged, normalized with the total coomassie intensity of the corresponding sample, and fitted with a dose-response equation with Prism v7.02 (GraphPad). […] The media were then placed with fresh media containing 2 μM of TCO-TAMRA, and the cells were incubated at 37° C. for 30 min. […] The protein concentration was measured with a bicinchoninic acid (BCA) assay kit (Thermo Scientific) and normalized. In-gel fluorescence and data analysis. […]

[9] = 30° C. to 400/500° C. at 5° C./min
Experimental: DSC data was obtained on a Mettler-Toledo Differential Scanning Calorimeter 3+. Samples were loaded into a goldplated high-pressure pan, held at 30° C. for 10 minutes, then a gradient of 30° C. to 400/500° C. at 5° C./min.

logP [1] | decomposition per day [2] [%] | decomposition per day [3] [%] | SMILES | k2, second order rate constant [4] [M⁻¹ s⁻¹] | kobs ([4]; TCO 0.25 mM) [s⁻¹] | kobs ([4]; TCO 0.30 mM) [s⁻¹] | kobs ([4]; TCO 0.35 mM) [s⁻¹] | kobs ([4]; TCO 0.40 mM) [s⁻¹] | krel [4] | extent of MAGL labeling at the probe concentration used [6] | kobs [7] [s⁻¹] | krel [7] | also measured
2.2 | 1.8 | 6.7 | COC(=O)CCc1nnc(-c2ccccc2)nn1 [5b, methyl 3-(6-phenyl-1,2,4,5-tetrazin-3-yl)propanoate] | 197.9 ± 13.36 | 0.57 | 0.065 | 0.075 | 0.87 | 1.0 |  |  |  | 
0.89 | 3.9 | 10.8 | C=C(OCC)c1nnc(CCC(=O)OC)nn1 [6c, methyl 3-(6-(1-ethoxyvinyl)-1,2,4,5-tetrazin-3-yl)propanoate] | 833 ± 35.7 | 0.20 | 0.24 | 0.28 | 0.33 | 4.2 |  |  |  | times faster than 5b ([4]; reaction with 5-hydroxyTCO): 4.2 times
 |  |  | O=C(OC(C(F)(F)F)C(F)(F)F)N1CCC(CNS(=O)(=O)c2ccc(-c3nncnn3)cc2)CC1 [100c, 1,1,1,3,3,3-hexafluoropropan-2-yl 4-((4-(1,2,4,5-tetrazin-3-yl)phenylsulfonamido)methyl)piperidine-1-carboxylate] |  |  |  |  |  |  | full labeling of MAGL | 0.2011 | 162 | IC50 [5]: 16 nM; time at which labeling was complete ([6]; 100c 1 μM 1 h, then 2 μM TCO-TAMRA, first data point): ≤ 2 min; times more reactive than 100b ([7]; stopped flow kinetics with 5-hydroxyTCO): 6.5 times; labeling of MAGL by gel-based ABPP [8]: strong labeling of MAGL
 |  |  | Cc1nnc(SCc2ccc(-c3ccccc3)cc2)nn1 [b-Tz, 3-([1,1′-biphenyl]-4-ylmethylthio)-6-methyl-1,2,4,5-tetrazine] |  |  |  |  |  |  |  |  |  | DSC onset temperature [9]: 170 °C; DSC transition enthalpy [9]: 900 J/g
 |  |  | Cc1nnc(-c2ccc(-n3ccc(C4CCN(C(=O)OC(C(F)(F)F)C(F)(F)F)CC4)n3)cc2)nn1 [compound 12, reference compound] |  |  |  |  |  |  | full labeling of MAGL | 0.001244 | 1 | 

From US11767302B2, “Reagents and methods for tetrazine synthesis” (University of Delaware, priority 2020, dated 2023)
